≈ marks a conversion by molar mass, not a printed value. Where “and” joins values, the source holds several entries; their conditions need not be identical. Equal values may be shown once. Read-outs that look alike come from different tables or passages of the source.
Experiments:
hTRPV3 [1] = biological target: T1, hTRPV3 (Homo sapiens (Human), UniProt Q8NET8); assay: Whole-cell patch clamp, hTRPV3 Phase 1 / Phase 2 currents; format: cell-based
Outline: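 Currents are activated by 20 μM 2-APB or by perfusate at 28 °C or warmer, in Ringer's solution, and quantified at ±80 mV.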

hTRPV3 [2] = biological target: T1, hTRPV3; assay: hTRPV3 HAMA IC50 assay (Hamamatsu FDSS6000 calcium flux, TRex-293 cells); conditions: 5 min
Description: IC50s were calculated using CBIS from ChemInnovation (San Diego).

rat (r) TRPV3 = rat (r) TRPV3 (Rattus norvegicus, UniProt E9PU00); assay: Whole-cell patch clamp, rTRPV3 Phase 1 / Phase 2 currents; format: cell-based
Excerpt: Whole-cell patch clamp experiments permit the detection of currents through the TRPV3 channel in the cell line described above. A glass electrode is brought into contact with a single cell and the membrane is then ruptured, permitting control of the voltage of the cell membrane and measurement of currents flowing across the membrane using the amplifier attached to the electrode. A perfusion system permits control of the extracellular solution, including the addition of blockers and activators of the current. The current can be activated by heating this solution to 28° C. or warmer or by addition of 20 μM 2-APB to the solution.
TRPV3 cells were induced 20-48 hours, removed from growth plates, and replated at low density (to attain good single-cell physical separation) on glass coverslips for measurement. In some cases, cells were grown in low density overnight on glass coverslips. Patch clamp recordings were made in the whole-cell mode with a holding potential of −40 mV. Every 5 seconds, a voltage ramp was applied from −120 to +100 mV, 400 ms in duration. Currents elicited were quantified at −80 mV and +80 mV. The internal solution consisted of 140 mM cesium aspartate, 10 mM EGTA, 2.27 mM MgCl2, 1.91 mM CaCl2) and 10 mM HEPES, pH to 7.2 with KOH; with 50 nM calculated free […]. External solution was Ringer's solution described above. Upon addition of 2-APB or upon heating of the extraceullar solution as described above, TRPV3 current was induced only in TRPV3-expressing cells and not in parental HEK293 TREx cells. […] Removal of the stimulus caused most of the current to go away, and inhibitor addition could still inhibit this current.
In Tables 3 and 4, Phase 1 refers to Phase 1 current for human (h) TRPV3 or rat (r) TRPV3, and Phase 2 refers to Phase 2 current for human (h) TRPV3 or rat (r) TRPV3. The hTRPV3 and rTRPV3 assays were performed as described herein. hERG refers to the inhibition the human ERG (hERG) channel. NaV1.5, refers to the pore forming aL-subunit of the voltage-dependent cardiac Na(+) channel and is an integral membrane protein involved in the initiation and conduction of action potentials. hTRPV3 HAMA IC50 refers to the IC50 of TRPV3 cells stably expressed in TRex-293 cells. Solubility Ringer refers to the compounds' solubility in Ringer's solution. LM T1/2 refers to liver microsome half-lives in either rat or human liver microsomes. FLIPR IC50 refers to the IC50 of the test compounds against recombinant hTRPV3 cells.

[3] = Aqueous solubility assay in Normal Ringer Solution; conditions: for solubility at 40 min: saline or isotonic, kinetic from dmso stock
Description: Following vortex and incubation for a sufficient time (e.g. 40 minutes at room temperature), solutions were filtered, quenched with acetonitrile, and analyzed by Liquid Chromotography. Solubility Limits were determined by comparison to a standard curve.

[4] = Metabolic Stability assay, human liver microsomes; format: in vitro ADME
Description: Metabolic Stability assay: The metabolic stability was determined by adding compound dissolved in DMSO to human or rat, liver microsomes. Briefly, assays were run with a starting concentration of 1 μM test article. The reaction was started by addition of NADPH regeneration components at 37° C. at which time an aliquot was immediately quenched in ice-cold acetonitrile/MeOH/H2O solution. Reaction mixture was incubated at 37° C. on a shaker, and additional aliquots were taken at 7, 15, 30 and 60 minutes. Following quench and centrifugation, samples were analyzed on HPLC/MS/MS.

[5] = Metabolic Stability assay, rat liver microsomes; format: in vitro ADME
Outline: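 Reactions in human or rat liver microsomes at 37 °C were started with an NADPH-regenerating system, using 1 μM compound initially. Samples were taken at 0, 7, 15, 30 and 60 min, quenched in ice-cold acetonitrile/MeOH/H2O, and quantified by HPLC/MS/MS.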

human hERG channels = human hERG channels (Homo sapiens (Human), UniProt Q12809); assay: hERG assay (patch clamp, CHO cells); format: cell-based
Description: hERG assay: Briefly, cells from a stable CHO cell line expressing human hERG channels were plated onto glass coverslips and used in patch clamp assays on the same day. After seal formation and break-in to whole-cell configuration, voltage steps were applied as follows: from the holding potential of −90 mV, a 2 second long step to +40 mV was applied, followed by a 1.5 second step to −50 mV. These steps were applied once every 5 seconds. The hERG current was measured at the peak of the outward tail current at −50 mV. The pipette solution was potassium aspartate based and the external solution was normal Ringer's.
All currents were recorded in whole-cell configuration using an Axopatch 200B controlled by pClamp 10 software (Molecular Devices). In each cell, when the current stabilized, the compound was perfused locally onto the cell. Two to three concentrations of the test compound were applied to each cell. At the end of compound testing, 10 μM verapamil was applied to completely block hERG currents and assess leak current.
Data were analyzed by computing the degree of current block after compound addition compared with the unblocked current amplitude. The unblocked current was predicted from the interpolation between the current amplitude prior to compound addition and after compound washout. The resulting percent block at each concentration was used to make a concentration-response plot and fitted to the Hill equation: percent block=minimum block+(maximum block-minimum block)/(1+10^(Hill slope*(log IC50−concentration))).

[6] = Phase 1 current, inward, whole-cell patch clamp, read-out: hTRPV3 Patch P1 Inwd
[7] = Phase 1 current, read-out: hTRPV3 (nM) (Phase 1)
[8] = Phase 1 current, read-out: rTRPV3 (nM) (Phase 1)
[9] = Phase 2 current, read-out: rTRPV3 (nM) (Phase 2)
[10] = Phase 2 current, read-out: hTRPV3 (nM) (Phase 2)
[11] = Phase 1 current, human TRPV3, read-out: hTRPV3 (nM) Phase 1

Chain of human hERG channels (Q12809 whole entry): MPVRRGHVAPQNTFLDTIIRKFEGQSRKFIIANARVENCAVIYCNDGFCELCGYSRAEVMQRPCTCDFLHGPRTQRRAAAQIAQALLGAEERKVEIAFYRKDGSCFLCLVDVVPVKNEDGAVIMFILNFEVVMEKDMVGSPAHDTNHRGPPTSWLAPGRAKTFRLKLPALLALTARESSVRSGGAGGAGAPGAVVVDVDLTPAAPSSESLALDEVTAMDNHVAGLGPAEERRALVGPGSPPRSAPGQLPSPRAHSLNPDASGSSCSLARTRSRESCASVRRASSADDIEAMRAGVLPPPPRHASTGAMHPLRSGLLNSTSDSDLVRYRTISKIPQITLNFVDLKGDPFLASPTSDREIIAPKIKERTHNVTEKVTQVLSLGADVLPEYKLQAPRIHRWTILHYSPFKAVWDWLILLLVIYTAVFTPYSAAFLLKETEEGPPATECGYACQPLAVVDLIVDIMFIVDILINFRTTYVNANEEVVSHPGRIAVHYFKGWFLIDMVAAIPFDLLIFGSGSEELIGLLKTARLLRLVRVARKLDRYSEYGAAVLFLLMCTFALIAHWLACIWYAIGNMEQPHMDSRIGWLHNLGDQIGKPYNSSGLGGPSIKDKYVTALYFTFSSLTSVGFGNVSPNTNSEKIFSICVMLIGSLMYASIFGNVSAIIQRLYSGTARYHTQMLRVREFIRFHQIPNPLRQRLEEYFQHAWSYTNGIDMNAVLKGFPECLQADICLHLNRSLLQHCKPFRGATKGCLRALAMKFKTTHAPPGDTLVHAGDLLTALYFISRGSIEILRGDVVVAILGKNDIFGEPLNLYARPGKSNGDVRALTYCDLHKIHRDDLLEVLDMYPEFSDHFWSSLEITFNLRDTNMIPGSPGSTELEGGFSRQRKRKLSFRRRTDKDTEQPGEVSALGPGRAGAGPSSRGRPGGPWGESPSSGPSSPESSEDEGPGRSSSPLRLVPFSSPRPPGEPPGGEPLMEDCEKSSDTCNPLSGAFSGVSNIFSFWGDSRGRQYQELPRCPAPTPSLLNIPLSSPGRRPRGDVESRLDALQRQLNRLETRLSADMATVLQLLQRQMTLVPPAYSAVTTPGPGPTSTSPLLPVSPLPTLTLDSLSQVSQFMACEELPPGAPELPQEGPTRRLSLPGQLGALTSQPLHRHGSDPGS
Chain of rat (r) TRPV3 (E9PU00 1-791): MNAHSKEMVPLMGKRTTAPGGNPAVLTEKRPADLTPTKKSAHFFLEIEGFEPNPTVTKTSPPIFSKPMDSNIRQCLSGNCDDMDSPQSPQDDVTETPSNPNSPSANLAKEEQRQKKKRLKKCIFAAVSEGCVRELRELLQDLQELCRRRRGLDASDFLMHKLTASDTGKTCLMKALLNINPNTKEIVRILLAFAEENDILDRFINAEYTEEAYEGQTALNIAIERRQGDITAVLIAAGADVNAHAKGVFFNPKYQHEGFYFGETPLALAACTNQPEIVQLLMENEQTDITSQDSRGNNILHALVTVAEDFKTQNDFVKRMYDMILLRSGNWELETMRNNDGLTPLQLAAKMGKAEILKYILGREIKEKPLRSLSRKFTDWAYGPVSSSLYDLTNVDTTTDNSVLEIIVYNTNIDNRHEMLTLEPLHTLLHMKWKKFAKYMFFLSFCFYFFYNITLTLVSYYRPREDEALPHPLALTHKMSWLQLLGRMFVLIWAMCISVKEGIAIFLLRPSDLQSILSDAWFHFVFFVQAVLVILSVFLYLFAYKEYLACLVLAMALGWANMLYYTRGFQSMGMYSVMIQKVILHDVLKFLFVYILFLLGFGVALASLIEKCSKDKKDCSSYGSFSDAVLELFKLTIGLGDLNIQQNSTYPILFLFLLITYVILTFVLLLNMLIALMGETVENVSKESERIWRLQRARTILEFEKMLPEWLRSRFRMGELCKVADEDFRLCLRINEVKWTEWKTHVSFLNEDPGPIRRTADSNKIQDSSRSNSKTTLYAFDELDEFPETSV
T1 sequence (Q8NET8 whole entry): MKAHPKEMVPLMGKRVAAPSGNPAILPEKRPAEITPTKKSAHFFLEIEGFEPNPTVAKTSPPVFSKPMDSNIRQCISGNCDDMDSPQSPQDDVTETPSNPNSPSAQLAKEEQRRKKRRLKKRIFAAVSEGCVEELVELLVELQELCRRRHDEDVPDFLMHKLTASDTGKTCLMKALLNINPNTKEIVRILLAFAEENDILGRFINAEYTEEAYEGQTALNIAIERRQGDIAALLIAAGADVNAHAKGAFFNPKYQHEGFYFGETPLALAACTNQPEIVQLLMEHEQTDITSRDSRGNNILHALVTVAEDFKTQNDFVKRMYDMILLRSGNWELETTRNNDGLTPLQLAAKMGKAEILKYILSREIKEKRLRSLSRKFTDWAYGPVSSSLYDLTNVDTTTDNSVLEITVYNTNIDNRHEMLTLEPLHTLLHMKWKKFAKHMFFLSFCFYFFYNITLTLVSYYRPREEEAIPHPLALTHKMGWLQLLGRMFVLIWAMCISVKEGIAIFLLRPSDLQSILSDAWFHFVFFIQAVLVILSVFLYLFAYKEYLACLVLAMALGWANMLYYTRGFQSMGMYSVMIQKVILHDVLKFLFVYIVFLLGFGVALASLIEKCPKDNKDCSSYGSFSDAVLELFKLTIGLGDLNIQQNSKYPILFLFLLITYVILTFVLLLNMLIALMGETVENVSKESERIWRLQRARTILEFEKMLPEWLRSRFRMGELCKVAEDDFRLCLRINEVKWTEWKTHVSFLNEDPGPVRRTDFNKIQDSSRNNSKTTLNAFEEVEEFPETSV

SMILES | IC50 (hTRPV3 [1]; [6]) [nM] | IC50 (hTRPV3 [1]; [7]) [nM] | IC50 (rat (r) TRPV3; [8]) [nM] | solubility at 40 min ([3]; Normal Ringer Solution) [µM] | half-life at 1 μM ([5]; read-out: LM T1/2 (min) (rat)) | IC50 (hTRPV3 [1]; [11]) [nM] | half-life at 1 μM ([4]; read-out: LM T1/2 (min) human) [min] | half-life at 1 μM ([5]; read-out: LM T1/2 (min) rat) [min] | IC50 (human hERG channels; (PL), read-out: hERG (nM) (PL)) [M] | also measured
NC(=O)c1cc(-c2ccccc2)ccc1N1CC[C@@H](Oc2ccc(C(F)(F)F)cn2)C1 [Compound 1-33, (R)-4-(3-(5-(trifluoromethyl)pyridin-2-yloxy)pyrrolidin-1-yl)biphenyl-3-carboxamide] | 100 to 1000 | 139 | 283 |  |  |  |  |  |  | hTRPV3 HAMA IC50 (nM) (5 min) (hTRPV3 [2]): no fit (5 min); IC50 (rat (r) TRPV3; [9]): 776 nM
NC(=O)c1cc(C(F)(F)F)ccc1N1CC[C@H](Oc2ccc(C(F)(F)F)cn2)C1 [Compound 1-58, (S)-5-(trifluoromethyl)-2-(3-(5-(trifluoromethyl)pyridin-2-yloxy)pyrrolidin-1-yl)benzamide] |  |  |  | > 11.3 | > 60 |  |  |  |  | IC50 (hTRPV3 [1]; hTRPV3 (nM) (Phase 1)): 1250 nM and 1520 nM and > 3200 nM; IC50 (hTRPV3 [1]; hTRPV3 Patch P2 Inwd (nM)): 100 to 1000 nM; IC50 (hTRPV3 [1]; read-out: hTRPV3 (nM) (Phase 1)): 1040 nM; IC50 (hTRPV3 [1]; read-out: hTRPV3 (nM) (Phase 2)): 241 nM; hTRPV3 HAMA IC50 (nM) (5 min) (hTRPV3 [2]): no fit (5 min); half-life at 1 μM ([4]; read-out: LM T1/2 (min) (human)): > 60 min
NC(=O)c1cc(-c2ccc(F)cc2)ccc1N1CC[C@H](Oc2ccc(C(F)(F)F)cn2)C1 [Compound 1-65, (S)-4′-fluoro-4-(3-(5-(trifluoromethyl)pyridin-2-yloxy)pyrrolidin-1-yl)biphenyl-3-carboxamide] | 100 to 1000 | 475 | 1140 |  | 77.3 |  |  |  |  | IC50 (hTRPV3 [1]; Phase 2 current, inward, whole-cell patch clamp, read-out: hTRPV3 Patch P2 Inwd): 100 to 1000 nM; IC50 (hTRPV3 [1]; [10]): 417 nM; hTRPV3 HAMA IC50 (nM) (5 min) (hTRPV3 [2]): no fit (5 min); Solubility Ringer (nM) ([3]; Normal Ringer Solution, room temperature): BLQ; IC50 (rat (r) TRPV3; [9]): 3250 nM
OCc1cc(C(O)c2ccccc2Cl)ccc1N1CC[C@H](Oc2ncccc2Cl)C1 (stereo partly drawn) [Compound 1-262, (2-chlorophenyl)(4-((S)-3-(3-chloropyridin-2-yloxy)pyrrolidin-1-yl)-3-(hydroxymethyl)phenyl)methanol] | 10 to 100 | 23.7 | ~20 |  | 14.6 |  |  |  |  | solubility at 40 min [3]: ~4.7 µM (≈ 2.09 µg/mL); IC50 (rat (r) TRPV3; [9]): 21.3 nM
OCc1cc([C@@H](O)c2ccccc2Cl)ccc1N1CC[C@H](Oc2ncccc2F)C1 [Compound 1-321, (2-chlorophenyl)(4-((S)-3-(3-fluoropyridin-2-yloxy)pyrrolidin-1-yl)-3-(hydroxymethyl)phenyl)methanol] | 10 to 100 | 12.2 | 5.37 | > 9.8 | 16.9 |  |  |  |  | hTRPV3 (nM) (Phase 2) (hTRPV3 [1]; Phase 2 current): Incomplete Block; IC50 (hTRPV3 [1]; [10]): ~30 nM and ~44 nM; IC50 (rat (r) TRPV3; rTRPV3 (nM) (Phase 2), Phase 2 current): ~15.7 nM; IC50 (human hERG channels; (PL), read-out: hERG): ~3.73e-06 M
CC(C)c1ccccc1-c1ccc(C2CCN(C(=O)c3ccc(F)cn3)C2)c(CO)c1 (centres unmarked) [Compound 2-29, (5-fluoropyridin-2-yl)(3-(3-(hydroxymethyl)-2′-isopropylbiphenyl-4-yl)pyrrolidin-1-yl)methanone] | < 10 |  |  | > 16.6 |  | 6.03 | 8.8 | 16.8 | 7.48e-06 | IC50 (rat (r) TRPV3; rTRPV3 (nM) Phase 1, Phase 1 current, rat TRPV3): 5.56 nM; IC50 (human hERG channels; (M), read-out: hERG): 7.38e-06 M
CC(C)c1ccccc1-c1ccc(C2CCN(C(=O)c3cc(Cl)ccn3)C2)c(CO)c1 (centres unmarked) [Compound 2-49, (4-chloropyridin-2-yl)(3-(3-(hydroxymethyl)-2′-isopropylbiphenyl-4-yl)pyrrolidin-1-yl)methanone] | 10 to 100 |  |  | > 12.8 |  | 25.7 | 12.2 | 20.6 | 6.97e-06 | 
CCc1ccccc1-c1ccc(C2CCN(C(=O)c3ncccc3Cl)C2)c(CO)c1 (centres unmarked) [Compound 2-52, (3-chloropyridin-2-yl)(3-(2′-ethyl-3-(hydroxymethyl)biphenyl-4-yl)pyrrolidin-1-yl) methanone] | 10 to 100 |  |  | > 17.8 |  | 67.3 | 14.4 | 9.2 |  | 
CCc1ccccc1-c1ccc(C2CCN(C(=O)c3cccc(Cl)n3)C2)c(CO)c1 (centres unmarked) [Compound 2-53, (6-chloropyridin-2-yl)(3-(2′-ethyl-3-(hydroxymethyl)biphenyl-4-yl)pyrrolidin-1-yl) methanone] | < 10 |  |  | ~7.7 (≈ 3.24 µg/mL) |  | 8.39 | 24.9 | 12.3 |  | 
O=C(c1ccc(Cl)cn1)N1CCC(c2ccc(-c3ccccc3C3CC3)cc2CO)C1 (centres unmarked) [Compound 2-56] | < 10 |  |  | ~5.1 (≈ 2.21 µg/mL) |  | 2.04 | 24.6 |  | 7.29e-06 | 
O=C(c1ccc(C(F)(F)F)cn1)N1CCC(c2ccc(-c3ccccc3C3CC3)cc2CO)C1 (centres unmarked) [Compound 2-58, (3-(2′-cyclopropyl-3-(hydroxymethyl)biphenyl-4-yl)pyrrolidin-1-yl)(5-(trifluoromethyl)pyridin-2-yl)methanone] | 10 to 100 |  |  | ~5.2 (≈ 2.43 µg/mL) |  | 27.3 | 54.6 | 47.9 | 1.5e-05 | 
CCc1cc(C)ccc1-c1ccc(C2CCN(C(=O)c3ccc(F)cn3)C2)c(CO)c1 (centres unmarked) [Compound 2-62, (3-(2′-ethyl-3-(hydroxymethyl)-4′-methylbiphenyl-4-yl)pyrrolidin-1-yl)(5-fluoropyridin-2-yl)methanone] | 10 to 100 |  |  | > 12.1 |  | 64.9 | 14.9 | 14 | 1.77e-05 | 
O=C(c1ccc(F)cn1)N1CCC(c2ccc(-c3ccccc3C3CC3)cc2CO)C1 (centres unmarked) [Compound 2-72, (3-(2′-cyclopropyl-3-(hydroxymethyl)biphenyl-4-yl)pyrrolidin-1-yl)(5-fluoropyridin-2-yl)methanone] |  |  |  | ~25.5 (≈ 10.6 µg/mL) |  |  | 17.5 | 31.3 | 8.46e-06 | IC50 (human hERG channels; (M), read-out: hERG): 9.24e-06 M
